Experimental data: patent US20240148664A1, “LIPID AND COMPOSITION” (SOGO PHARMACEUTICAL CO., LTD., priority 2021, published 2024)

Tests used:
[1] = system: HT1080-EGFP (human/fibrosarcoma) cells; experiment: Evaluation of knockdown effect (GFP assay), Cell experiment 1; assay type: cell-based; details: lipid nanoparticle containing siRNA against EGFP; fluorescence intensity with control cells without lipid nanoparticle set at 100
Method: A cell experiment was carried out by using HT1080-EGFP (human/fibrosarcoma) cells in order to evaluate lipid nanoparticles encapsulating an siRNA produced by using the lipids of the Examples and the Comparative Examples. These cells are cells provided with a green fluorescent protein gene (EGFP). The expression of EGFP can be easily confirmed by measuring the fluorescence intensity of a solution in which the cells are lysed, and thus by acting lipid nanoparticles encapsulating an siRNA that suppresses the expression of EGFP and observing any decrease in fluorescence intensity, the performance of the lipid nanoparticles used can be evaluated. Hereinafter, the procedure of the cell experiment will be shown.
A. Provision of Cells • (i) A liquid medium (DMEM/Ham's F12, FBS+, P/S+) (FBS: fetal bovine serum, P/S: antibiotic) was taken out from a refrigerator and temperature-controlled in an incubator set at 37° C. • (ii) A cryotube containing the cells was taken out from a −80° C. freezer and thawed at once in an incubator set at 37° C. • (iii) A stock solution of the thawed cells was collected in a capped test tube. • (iv) The tube containing the cells was washed with the liquid medium, and the wash was also collected in the test tube. • (v) The tube was subjected to a centrifuge to precipitate the cells. • (vi) The supernatant was aspirated, and the liquid medium was added and gently tapped to disperse the cells. • (vii) A small amount of the cells-dispersed liquid medium was collected, and the number of cells was observed and counted under a microscope. • (viii) The cells were seeded in a 24-well plate such that the number of cells was 2×10^4 cells per well. For the plate for an LDH assay described later, the cells were seeded in a 96-well plate such that the number of cells was 4×10^3 cells per well. • (ix) The 24-well plate or the 96-well plate was placed in an incubator, and the cells were cultured for 24 hours under conditions of 37° C. and 5% CO2.
The produced lipid nanoparticles were introduced into cells. • (i) Fetal bovine serum (FBS) was added to a liquid medium (FBS-, P/S-) temperature-controlled as in (i) of A above, in such a way as to reach 10%. • (ii) A 24-well plate was taken out from an incubator, and the liquid medium supernatant in the 24-well plate was aspirated and washed with phosphate buffered saline (PBS). • (iii) 400 μL of the liquid medium produced in (i) above was added to the washed 24-well plate. In addition, 100 μL of an LNP solution having an adjusted concentration was added. • (iv) The 24-well plate was placed in the incubator, and the cells were cultured (for 24 hours). • (v) After 24 hours, the liquid medium supernatant in the 24-well plate was aspirated, and 500 μL of a liquid medium containing 10% FBS (FBS+/P/S+) was added. • (vi) The 24-well plate was placed in the incubator, and the cells were cultured for 24 hours under conditions of 37° C. and 5% CO2.
By carrying out a GFP assay, the EGFP expression level in cells was measured to evaluate the effect of knocking down the green fluorescent protein gene (EGFP) by lipid nanoparticles. • (i) A 24-well plate was taken out from an incubator and washed with PBS. • (ii) A 1% octylglucoside solution to which a protease inhibitor was added was added in order to disrupt cells. Stirring with a pipette lysed the cells. • (iii) The cell lysate was transferred to an Eppendorf tube and subjected to a centrifuge. • (iv) 150 μL of the supernatant was collected and added to a plate for fluorescence measurement. • (v) The fluorescence intensity was measured under conditions of an excitation wavelength of 485 nm and a fluorescence wavelength of 535 nm with a plate reader (manufactured by TECAN, Infinite M200). The fluorescence intensity was calculated with the fluorescence intensity of control cells to which no lipid nanoparticle was added set at 100.

[2] = Measurement of particle size, polydispersity index and zeta potential of lipid nanoparticle (Zetasizer); assay type: physicochemical
How it was run: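 Dialysed LNP solution diluted in ultrapure water; particle size taken as Z-average and PDI by dynamic light scattering (Zetasizer). Zeta potential measured with pH 7.4 Tris-HCl as diluent.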

[3] = siRNA / mRNA encapsulation rate of lipid nanoparticle (RiboGreen); assay type: physicochemical
How it was run: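 LNP solution was read with RiboGreen (ex 480/em 520 nm) with and without 1% Triton X-100 disruption (2 pmol siRNA or mRNA per 40 μL). Encapsulation (%) = (a−b)/a×100, a = total and b = free RNA signal, each a blank-subtracted mean of three readings.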

[4] = lipid nanoparticle containing siRNA, main lipid/DPPC/cholesterol=45/10/45, Z-average in ultrapure water
[5] = lipid nanoparticle containing siRNA, main lipid/DPPC/cholesterol=45/10/45, ultrapure water
[6] = lipid nanoparticle containing siRNA, pH 7.4 Tris-HCl
[7] = siRNA encapsulation rate of lipid nanoparticle
[8] = mRNA lipid nanoparticle for in vivo experiment, PEG-modified lipid (PEG2000-DMG 1.5 mol %) present
[9] = mRNA lipid nanoparticle for in vivo experiment, PEG-modified lipid absent

Row | Structure (SMILES) | GFP Assay [1] | Particle size (nm) [2, 4] [nm] | PDI [2, 5] | Zeta potential (mV) [2, 6] [mV] | Encapsulation rate (%) [3, 7] [%] | PDI [2, 8] | Particle size (nm) [2, 8] [nm] | Zeta potential (mV) [2, 8] [mV] | PDI [2, 9] | Particle size (nm) [2, 9] [nm] | Zeta potential (mV) [2, 9] [mV] | Encapsulation rate (%) [3, 8] [%] | Encapsulation rate (%) [3, 9] [%]
1 | CCCCCCCC/C=C\CCCCCCCCC(CCCCCCC/C=C\CCCCCCCC)OC(=O)C(CO)NC(=O)C(N)CCCNC(=N)N [Example 4, (9Z,27Z)-hexatriaconta-9,27-dien-18-yl (2S)-2-((S)-2-amino-5-guanidinopentanamido)-3-hydroxypropionate] | 7 | 103.6 | 0.101 | 15.7 | 100 |  |  |  |  |  |  |  | 
2 | CCCCCCCC/C=C\CCCCCCCCC(CCCCCCC/C=C\CCCCCCCC)OC(=O)[C@H](CCSC)NC(=O)[C@@H](N)CCCNC(=N)N (stereo partly shown) [Example 6, (9Z,27Z)-hexatriaconta-9,27-dien-18-yl arginylmethioninate] | 40 | 125.9 | 0.118 | 21.9 | 100 |  |  |  |  |  |  |  | 
3 | CCCCCCCC/C=C\CCCCCCCCC(CCCCCCC/C=C\CCCCCCCC)OC(=O)C(NC(=O)C(N)CCCNC(=N)N)C(C)O [Example 5, (9Z,27Z)-hexatriaconta-9,27-dien-18-yl (2S)-2-((S)-2-amino-5-guanidinopentanamido)-3-hydroxybutanoate] | 22 | 109.2 | 0.084 | 15.2 | 100 |  |  |  |  |  |  |  | 
4 | CCCCCCCC/C=C\CCCCCCCCC(CCCCCCC/C=C\CCCCCCCC)OC(=O)C(CC(=O)O)NC(=N)N (stereo not shown) [Comparative Example 2, 3-guanidino-4-(((9Z,27Z)-hexatriaconta-9,27-dien-18-yl)oxy)-4-oxobutanoic acid, reference compound] | 97 | 117.1 | 0.085 | −7.75 | 95 |  |  |  |  |  |  |  | 
5 | CCCCCCCC/C=C\CCCCCCCCC(CCCCCCC/C=C\CCCCCCCC)OC(=O)C(CC(=O)O)NC(=O)C(N)CCCNC(=N)N (stereo not shown) [Example 1, 3-(2-amino-5-guanidinopentanamido)-4-(((9Z,27Z)-hexatriaconta-9,27-dien-18-yl)oxy)-4-oxobutanoic acid] | 28 | 116.5 | 0.169 | 6.98 | 99 |  |  |  |  |  |  |  | 
6 | CCCCCCCC/C=C\CCCCCCCCC(CCCCCCC/C=C\CCCCCCCC)OC(=O)C(CCC(=O)O)NC(=O)C(N)CCCNC(=N)N (stereo not shown) [Example 2, 4-(2-amino-5-guanidinopentanamido)-5-(((9Z,27Z)-hexatriaconta-9,27-dien-18-yl)oxy)-5-oxopentanoic acid] | 24 | 119.7 | 0.099 | 9.59 | 99 | 0.19 | 92.8 | 16.71 | 0.10 | 119.7 | 3.92 | 93.2 | 91.3
7 | CCCCCCCC/C=C\CCCCCCCCC(CCCCCCC/C=C\CCCCCCCC)OC(=O)C(CCC(=O)O)NC(=N)N (stereo not shown) [Comparative Example 3, 4-guanidino-5-(((9Z,27Z)-hexatriaconta-9,27-dien-18-yl)oxy)-5-oxopentanoic acid, reference compound] | 102 | 137.0 | 0.329 | −7.66 | 95 |  |  |  |  |  |  |  | 
